{"source": "ChEMBL document CHEMBL1136064", "about": "“The synthesis and characterization of BMS-204352 (MaxiPost) and related 3-fluorooxindoles as openers of maxi-K potassium channels” (Bioorg Med Chem Lett, 2002)", "key": {"[1]": {"target": "Calcium-activated potassium channel subunit alpha-1 KCNMA1 (Homo sapiens) (UniProt Q12791)", "sequence (Q12791 whole entry, looked up)": "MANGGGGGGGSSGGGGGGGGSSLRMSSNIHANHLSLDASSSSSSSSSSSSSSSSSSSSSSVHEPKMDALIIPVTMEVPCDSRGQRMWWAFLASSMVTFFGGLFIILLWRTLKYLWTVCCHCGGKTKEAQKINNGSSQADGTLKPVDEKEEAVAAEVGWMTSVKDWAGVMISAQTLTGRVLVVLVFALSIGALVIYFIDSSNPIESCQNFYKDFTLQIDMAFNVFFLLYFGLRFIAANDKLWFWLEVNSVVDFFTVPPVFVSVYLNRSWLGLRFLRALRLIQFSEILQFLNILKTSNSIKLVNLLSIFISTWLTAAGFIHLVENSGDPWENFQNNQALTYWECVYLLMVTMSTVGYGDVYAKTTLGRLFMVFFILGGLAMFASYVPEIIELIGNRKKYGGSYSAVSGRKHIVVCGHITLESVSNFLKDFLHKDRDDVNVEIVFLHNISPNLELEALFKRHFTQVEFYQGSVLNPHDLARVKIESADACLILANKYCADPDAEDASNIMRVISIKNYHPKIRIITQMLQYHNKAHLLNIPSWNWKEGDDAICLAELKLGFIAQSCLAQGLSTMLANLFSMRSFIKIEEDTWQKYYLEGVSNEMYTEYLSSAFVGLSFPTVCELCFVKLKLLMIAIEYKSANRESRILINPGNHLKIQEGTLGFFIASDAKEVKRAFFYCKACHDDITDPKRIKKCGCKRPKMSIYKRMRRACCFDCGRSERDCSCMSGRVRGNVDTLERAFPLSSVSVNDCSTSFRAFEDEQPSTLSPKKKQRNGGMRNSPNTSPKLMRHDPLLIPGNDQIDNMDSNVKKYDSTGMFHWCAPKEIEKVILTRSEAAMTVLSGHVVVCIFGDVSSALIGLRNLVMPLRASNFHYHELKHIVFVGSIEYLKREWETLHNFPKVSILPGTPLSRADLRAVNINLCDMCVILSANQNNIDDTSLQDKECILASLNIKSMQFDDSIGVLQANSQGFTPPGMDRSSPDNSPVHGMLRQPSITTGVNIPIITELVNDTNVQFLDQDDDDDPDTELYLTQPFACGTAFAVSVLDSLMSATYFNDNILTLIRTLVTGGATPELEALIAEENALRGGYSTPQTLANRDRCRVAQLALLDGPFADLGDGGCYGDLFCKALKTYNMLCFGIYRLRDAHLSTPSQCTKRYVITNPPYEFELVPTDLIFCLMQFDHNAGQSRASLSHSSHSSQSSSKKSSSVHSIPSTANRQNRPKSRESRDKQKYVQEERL", "assay": "Evaluation of maxi-K opening in Xenopus laevis oocytes injected with Hslo1 channels as percent of control current at a concentration of 20 uM", "conditions": "Oocyte"}, "[2]": {"test_system": "HEK293", "assay": "Tested for the effect on whole cell maxi-K current in HEK 293 cells at 100 nM", "type": "functional, Homo sapiens", "design": "unit not given here"}, "[3]": {"test_system": "HEK293", "assay": "Tested for the effect on whole cell maxi-K current in HEK 293 cells at 10 nM", "type": "functional, Homo sapiens"}, "[4]": {"test_system": "HEK293", "assay": "Tested for the effect on whole cell maxi-K current in HEK 293 cells at 1000 nM", "type": "functional, Homo sapiens"}, "[5]": {"assay": "Evaluated for Volume of distribution after iv administration of 5 mg/kg to male Sprague-Dawley rats", "type": "ADME, organism-based", "design": "dose 5 mg/kg, route intravenous", "conditions": "rat, in vivo, read-out: Volume of distribution"}, "[6]": {"assay": "Evaluated for half-life after iv administration of 1 mg/kg to male Sprague-Dawley rats in plasma", "type": "ADME, organism-based", "design": "dose 1 mg/kg, route intravenous", "conditions": "rat"}, "[7]": {"assay": "Evaluated for half-life after iv administration of 5 mg/kg to male Sprague-Dawley rats in brain", "type": "ADME, organism-based", "design": "dose 5 mg/kg, route intravenous", "conditions": "rat"}, "[8]": {"assay": "Evaluated for half-life after iv administration of 5 mg/kg to male Sprague-Dawley rats in plasma", "type": "ADME, organism-based", "design": "dose 5 mg/kg, route intravenous", "conditions": "rat"}, "[9]": {"assay": "Evaluated for plasma clearance after iv administration of 5 mg/kg to male Sprague-Dawley rats", "type": "ADME, organism-based", "design": "dose 5 mg/kg, route intravenous", "conditions": "rat"}, "[10]": {"assay": "Evaluated for AUC after iv administration of 1 mg/kg to male Sprague-Dawley rats in plasma", "type": "ADME, organism-based", "design": "dose 1 mg/kg, route intravenous", "conditions": "rat"}, "[11]": {"assay": "Evaluated for AUC after iv administration of 5 mg/kg to male Sprague-Dawley rats in brain", "type": "ADME, organism-based", "design": "dose 5 mg/kg, route intravenous", "conditions": "rat"}, "[12]": {"assay": "Evaluated for AUC after iv administration of 5 mg/kg to male Sprague-Dawley rats in plasma", "type": "ADME, organism-based", "design": "dose 5 mg/kg, route intravenous", "conditions": "rat"}, "[13]": {"assay": "Ratio of brain AUC versus plasma AUC", "type": "ADME, cell-free", "conditions": "rat"}, "[14]": {"target": "Calcium-activated potassium channel subunit alpha-1 KCNMA1 (Homo sapiens) (UniProt Q12791)", "assay": "Evaluation of maxi-K opening in Xenopus laevis oocytes injected with Hslo1 channels as percent of control current at 20 uM", "conditions": "Oocyte"}}, "note": "“And” between values parts separate entries of the source, which are not always exact repeats. Equal entries are not always repeated.", "data": [{"smiles": "O=C1Nc2cc(C(F)(F)F)ccc2C1(F)c1ccccc1", "note": "(stereo not drawn)", "values": [{"measurement": "remaining activity at 20 µM", "setting": "[1]", "result": 107, "unit": "%"}]}, {"smiles": "COc1ccc(Cl)cc1C1(F)C(=O)Nc2c(C(F)(F)F)cccc21", "note": "(stereo not drawn)", "values": [{"measurement": "Maxi-K current", "setting": "[2]", "result": "131.9 and 169.6"}]}, {"smiles": "COc1ccc(Cl)cc1[C@@]1(F)C(=O)Nc2cc(C(F)(F)F)ccc21", "values": [{"measurement": "Maxi-K current", "setting": "[3]", "result": 105}, {"measurement": "Maxi-K current", "setting": "[2]", "result": 164.4}, {"measurement": "Maxi-K current", "setting": "[4]", "result": 205.3}]}, {"smiles": "COc1ccc(Cl)cc1[C@]1(F)C(=O)Nc2cc(C(F)(F)F)ccc21", "note": "[FLINDOKALNER]", "values": [{"measurement": "Vd", "setting": "[5]", "result": 5.8, "unit": "L/kg"}, {"measurement": "half-life", "setting": "[6]", "result": 108, "unit": "min"}, {"measurement": "half-life", "setting": "[7]", "result": 96, "unit": "min"}, {"measurement": "half-life", "setting": "[8]", "result": 114, "unit": "min"}, {"measurement": "clearance", "setting": "[9]", "result": 51.5, "unit": "mL/min/kg"}, {"measurement": "AUC", "setting": "[10]", "result": 320, "unit": "ng·h/mL"}, {"measurement": "AUC", "setting": "[11]", "result": 28800, "unit": "ng·h/mL"}, {"measurement": "AUC", "setting": "[12]", "result": 3000, "unit": "ng·h/mL"}, {"measurement": "Maxi-K current", "setting": "[3]", "result": 127.8}, {"measurement": "Maxi-K current", "setting": "[2]", "result": 185.3}, {"measurement": "Maxi-K current", "setting": "[4]", "result": 247.4}, {"measurement": "Kp", "setting": "[13]", "result": 9.6}]}, {"smiles": "O=C1Nc2ccccc2C1(F)c1ccccc1", "note": "(stereo not drawn)", "values": [{"measurement": "remaining activity at 20 µM", "setting": "[14]", "result": 100, "unit": "%"}]}]}
